Data: patent US6355692B2, “Method of inhibiting formation of infectious microorganisms” (Northeastern Ohio Universities College of Medicine, priority 1998, dated 2002)
≈ marks a conversion by molar mass, not a printed value.

Assays:
[1] = system: Candida albicans; assay: Inhibitory concentration on bacteria and yeast in vitro; format: cell-based
[2] = system: pseudorabies virus; assay: microbe, parasite or virus in culture; format: cell-based
[3] = system: Neisseria meningitidis; assay: Growth inhibition on chocolate agar containing resveratrol; format: cell-based
Protocol: Stock solutions of the resveratrol, obtained from Sigma Chemical Co, St. Louis, Mo. were prepared in 100% ethanol. Different quantities of the stock solution where added to melted chocolate agar which was then poured into a petri dish and allowed to solidify. […] The final concentration of ethanol in the agar was 0.5%. Control plates containing chocolate agar and ethanol at a final concentration of 0.5% were also prepared. A culture of Neisseria […] obtained from the American Type Culture Collection. Authenticity of the bacterium was confirmed utilizing standard microbiological techniques of identification. Cultures of the bacterial isolate were inoculated onto fresh plates and then 24 hours later, a suspension was made from isolated colonies. […] Thereafter, the samples were incubated at 37° C. with or without 5% CO2. All samples were visually examined for growth of the bacterium 24 hours later to determine the resveratrol concentration that inhibits growth by 50% (MIC50) and the resveratrol concentration which inhibits any visible growth (MIC100)

[4] = system: Group A Beta Streptococcus; assay: Inhibitory concentration on bacteria and yeast in vitro; format: cell-based
[5] = system: Staphylococcus aureus; assay: as above; format: cell-based
[6] = system: Pseudomonas aeruginosa; assay: as above; format: cell-based
[7] = system: cultured cells
[8] = system: Escherichia coli; assay: Inhibitory concentration on bacteria and yeast in vitro; format: cell-based
[9] = system: Neisseria gonorrhea; assay: Growth inhibition on chocolate agar containing resveratrol; format: cell-based
Protocol: Stock solutions of the resveratrol, obtained from Sigma Chemical Co, St. Louis, Mo. were prepared in 100% ethanol. Different quantities of the stock solution where added to melted chocolate agar which was then poured into a petri dish and allowed to solidify. […] The final concentration of ethanol in the agar was 0.5%. Control plates containing chocolate agar and ethanol at a final concentration of 0.5% were also prepared. Neisseria gonorrhea was obtained from patients diagnosed with gonorrhea. The authenticity of the bacterium was confirmed utilizing standard microbiological techniques of identification. Cultures of the bacterial isolate were inoculated onto fresh plates and then 24 hours later, a suspension was made from isolated colonies. […] Thereafter, the samples were incubated at 37° C. with or without 5% CO2. All samples were visually examined for growth of the bacterium 24 hours later to determine the concentration of resveratol that inhibits growth by 50% (MIC50) as well as the concentration which inhibits any visible growth (MIC100)

[10] = complete inhibition of bacterial growth after 24 hours
[11] = concentrations ranging from 1 μg/ml to 200 μg/ml of solution

How did the IC50 ([1]; Candida albicans, 50% reduction in bacterial growth after 24 hours) turn out when `Oc1ccc(/C=C/c2cc(O)cc(O)c2)cc1` [resveratrol, 3,5,4′-trihdyroxystilbene] was run?
Its IC50 is over 200 µg/mL.

What about the IC100 [1, 10] of the same compound?
The IC100 was over 200 µg/mL.

What about the growth inhibition [1, 11] of the same compound?
Its growth inhibition is “does not inhibit the growth”.

And the “reversibility of effect on pseudorabies virus replication” value [2]?
Its value is “reversible”.

What about the inhibition at 50 µg/mL ([2]; Suid alphaherpesvirus 1, Vero, 24 h, read-out: inhibition of formation of infectious virus particles) of the same compound?
The inhibition at 50 µg/mL was over 99%.

What about the “infectious pseudorabies virus particles in cultures” value ([2]; continuously incubated with 50 μg/ml resveratrol, 72 hours) of the same compound?
The value was “virtually undetectable”.

And the IC50 ([3]; Neisseria meningitidis, 50% reduction in bacterial growth after 24 hours)?
Its IC50 is 100 µg/mL (≈ 438 µM).

And the IC100 [3, 10]?
The IC100 was 125 µg/mL.

And the IC50 ([4]; Streptococcus, 50% reduction in bacterial growth after 24 hours)?
Its IC50 is over 200 µg/mL.

And the IC100 [4, 10]?
The IC100 was over 200 µg/mL.

And the growth inhibition [4, 11]?
The growth inhibition was “does not inhibit the growth”.

What about the IC50 ([5]; Staphylococcus aureus, 50% reduction in bacterial growth after 24 hours) of the same compound?
The IC50 was over 200 µg/mL.

And the IC100 [5, 10]?
Its IC100 is over 200 µg/mL.

What about the growth inhibition [5, 11] of the same compound?
The growth inhibition was “does not inhibit the growth”.

What about the IC50 ([6]; Pseudomonas aeruginosa, 50% reduction in bacterial growth after 24 hours) of the same compound?
Its IC50 is over 200 µg/mL.

And the IC100 [6, 10]?
The IC100 was over 200 µg/mL.

What about the growth inhibition [6, 11] of the same compound?
The growth inhibition was “does not inhibit the growth”.

And the “toxicity to cultured cells” value [7]?
The value was “non-toxic to cells”.

What about the IC50 ([8]; Escherichia coli, 50% reduction in bacterial growth after 24 hours) of the same compound?
Its IC50 is over 200 µg/mL.

What about the IC100 [8, 10] of the same compound?
The IC100 was over 200 µg/mL.

And the growth inhibition [8, 11]?
Its growth inhibition is “does not inhibit the growth”.

What about the IC50 ([9]; Neisseria, 50% reduction in bacterial growth after 24 hours) of the same compound?
The IC50 was 25 µg/mL (≈ 110 µM).

And the IC100 [9, 10]?
The IC100 was 75 µg/mL.
